Measured values taken from paper PMC7824081, “Inhibition of DOT1L by Half-Selenopsammaplin A Analogs Suppresses Tumor Growth and EMT-Mediated Metastasis in Triple-Negative Breast Cancer” (Pharmaceuticals, 2020).

Assays:
[1] = tested on: MCF10A normal breast epithelial cells; assay: SRB cell proliferation assay, MCF10A; assay type: cell-based, human; settings: Homo sapiens, MCF-10A, 72 h
Method: Human breast epithelial cell line (MCF10A) and human TNBC cell lines (MDA-MB-468, MDA-MB-231, Hs578T, and HCC38 cells) were provided by the American Type Culture Collection (Manassas, VA, USA). MCF10A cells were cultured in Dulbecco’s Modified Eagle’s Medium/Nutrient Mixture F-12 containing 5% donor horse serum, 100 ng/mL cholera toxin, 10 µg/mL human insulin, 20 ng/mL epidermal growth factor, 0.5 µg/mL hydrocortisone, and penicillin-streptomycin (sodium penicillin G: 100 units/mL; streptomycin: 100 μg/mL). The TNBC cells were cultured in medium [Dulbecco’s Modified Eagle’s Medium for MDA-MB-468, MDA-MB-231, and Hs578T cells; Roswell Park Memorial Institute 1640 medium for HCC38 cells] supplemented with penicillin-streptomycin and 10% fetal bovine serum at 37 °C in a humidified incubator with 5% carbon dioxide. MCF10A cells were cultured in DMEM/F12 containing 5% donor horse serum, 100 ng/mL cholera toxin, 10 µg/mL human insulin, 20 ng/mL epidermal growth factor, 0.5 µg/mL hydrocortisone and penicillin-streptomycin. All reagents used for cell culture, including culture medium, fetal bovine serum, trypsin-EDTA solution (1×), and penicillin-streptomycin solution (100×), were purchased from Gibco (Grand Island, NE, USA). Laemmli sample buffer (2×) and 2-mercaptoethanol were purchased from Bio-Rad Laboratories, Inc. (Hercules, CA, USA). EPZ-5676 was purchased from Cayman Chemical (Ann Arbor, MI, USA). Dimethyl sulfoxide (DMSO), bicinchoninic acid, copper (II) sulfate solution, bovine serum albumin (BSA), trichloroacetic acid, sulforhodamine B (SRB), and paclitaxel were purchased from Sigma–Aldrich (St. Louis, MO, USA).
Cell proliferation was evaluated using the SRB assay. Briefly, cells were seeded in 96-well plates and incubated for 30 min (for 0-day controls) or treated with test compounds for the times indicated. After incubation, the cells were fixed, dried, and stained with 0.4% (w/v) SRB in 1% (v/v) acetic acid solution. Unbound dye was removed by washing, and stained cells were dissolved in 10 mM Tris (pH 10.0). Cell proliferation was then determined by measuring the absorbance at 515 nm.

[2] = tested on: E-cadherin, N-cadherin, vimentin in MDA-MB-231 cells; assay: Western blotting of EMT biomarkers in MDA-MB-231 cells; assay type: cell-based, human; settings: 24 h
Method: Total cell lysates were prepared in 2× sample loading buffer [250 mM Tris-HCl (pH 6.8), 10% glycerol, 4% sodium dodecyl sulfate (SDS), 2% β-mercaptoethanol, 0.006% bromophenol blue, 5 mM sodium orthovanadate, and 50 mM sodium fluoride; Bio-Rad, Hercules, CA, USA]. The protein concentrations of samples were quantified using the bicinchoninic acid (BCA) method and a BCA Protein Assay Kit (Thermo Fisher Scientific, Waltham, MA, USA). Equal amounts of protein (5–20 μg) were separated by 6–13% SDS-polyacrylamide gel electrophoresis (PAGE) and transferred to polyvinylidene fluoride membranes (Millipore, Bedford, MA, USA). The membranes were blocked with 5% bovine serum albumin (Sigma-Aldrich) and then probed with anti-DOT1L, anti-H3K79me2, anti-β-Actin, anti-histone H3, anti-H3K4me2, anti-H3K27me2, anti-H3K36me2, anti-H3K79me1, anti-H3K79me3, and anti-Vimentin antibodies purchased from Cell Signaling Technology (Beverly, MA, USA) or with anti-E-cadherin and anti-N-cadherin antibodies purchased from (BD Biosciences, San Jose, CA, USA). The blots were detected using a WEST-Queen detection system (iNtRON Biotechnology, Seongnam, Korea).

[3] = tested on: MDA-MB-231/Luc cells-implanted orthotopic mouse model; assay: MDA-MB-231/Luc-implanted orthotopic mouse tumor model; assay type: in vivo; settings: for tumor growth inhibition rate: end of experiment
Method: All animal experiments were conducted following the guidelines approved by the Seoul National University Institutional Animal Care and Use Committee (IACUC; permission number: SNU-180430-4-1). Female nude mice (BALB/c-nu), 4 weeks old, were purchased from Central Laboratory Animal, Inc. (Seoul, Korea) and housed under pathogen-free conditions with a 12 h light-dark schedule. Luciferase expressing MDA-MB-231 cells were inoculated orthotopically into the fourth fat pad of mice (1 × 10^7 cells in 100 μL of 50:50 PBS/Matrigel) using a 29-gauge needle. Two weeks after implantation, mice were randomized into vehicle control and treatment groups of six animals per group and were administered with vehicle (EtOH/Cremophor/Normal saline = 5:5:90), 9l (10 or 30 mg/kg body weight), EPZ-5676 (30 mg/kg body weight), or paclitaxel (5 mg/kg body weight, Sigma-Aldrich) as a positive reference control. Compounds were administered intraperitoneally three times per week for 38 days. An additional week later, anesthetized mice were positioned in IVIS (PerkinElmer, Waltham, MA, USA) and were imaged 15 min after injection of 150 mg/kg D-luciferin (Gold Biotechnology, St. Louis, MO, USA) resuspended in DPBS (w/o calcium or magnesium). Mice were euthanized and primary tumors and lungs were excised, weighed, and frozen for further biochemical analysis. The length (L), width (W), and height (H) of the tumors were also measured using a digital slide caliper (Mitutoyo, Kawasaki, Japan) once a week, and tumor volumes (mm^3) were estimated by the formula LWH/2. Toxicity was evaluated based on body weight loss.
A portion of the frozen tumors excised from nude mice on the termination day of the experiment was homogenized using a hand-held homogenizer in complete lysis buffer (Active Motif, Carlsbad, CA, USA). Aliquots were stored at −80 °C, and the levels of protein expression in the tumor lysates were determined. The protein concentrations in the tumor lysates were measured using the Bradford assay.

[4] = IVIS imaging, vs vehicle-treated control
[5] = western blotting of tumor lysates

Compound: CC(C)(C)c1ccc(C/C(=N\O)C(=O)NCC[Se]Sc2ccccc2)cc1 [9l, (E)-3-(4-(tert-Butyl)phenyl)-2-(hydroxyimino)-N-(2-((phenylthio)selanyl)ethyl)propanamide]
- IC50 [1]: 25.9 µM
- E-cadherin protein expression [2]: upregulation
- N-cadherin protein expression [2]: downregulation
- vimentin protein expression [2]: downregulation
- tumor growth inhibition rate ([3]; 10 mg/kg i.p., three times per week for 38 days): 44.0%
- tumor growth inhibition rate ([3]; 30 mg/kg i.p., three times per week for 38 days): 55.8%
- toxicity / body weight change ([3]; 10 or 30 mg/kg i.p., three times per week for 38 days): No overt toxicity or changes in body weight
- luminescence signal intensity from the primary tumor sites [3, 4]: decreased
- luminescence signal intensity in excised lung tissues (lung metastasis) [3, 4]: efficiently suppressed
- E-cadherin level in excised tumors [3, 5]: upregulated
- H3K79me2 protein level in excised tumors [3, 5]: downregulated
- Ki-67 expression in tumor tissues [3, 5]: significantly suppressed
- N-cadherin protein level in excised tumors [3, 5]: downregulated
- vimentin protein level in excised tumors [3, 5]: downregulated
